{"source": "patent US20250338846A1", "about": "“COMPOSITIONS HAVING PESTICIDAL UTILITY AND PROCESSES RELATED THERETO” (CORTEVA AGRISCIENCE, LLC, priority 2022, published 2025)", "type_in_all_cases": "in vivo", "key": {"[1]": {"test_system": "Cotton Aphid (Aphis gossypii, APHIGO)", "experiment": "Bioassay 7: Cotton Aphid, foliar spray on infested cotton seedlings, live aphids counted three days after treatment", "protocol": "where X=No. of live larvae on solvent check and Y=No. of live larvae on treated diet. In Table B6 the “Expected % Control” was calculated using the method described in Colby S. R., Weeds, 1967, 15, 20-22. Bioassay 7: Cotton Aphid (Aphis gossypii, APHIGO) (“CA”).\nStock solutions of Formula One and one or more of the active ingredients were prepared at concentrations of 1 mg/mL using a 1:1 mixture of acetone: methanol as a diluent. The stock solutions were prepared with Formula One as well as for each of the active ingredients individually. Test solutions were prepared from the stock solutions. Test solutions were prepared containing Formula One, the individual active ingredients, and mixtures of Formula One with each of the active ingredients. The test solutions for Formula One and the individual active ingredients were prepared by adding 1.5 mL of stock solution to a 30 mL glass vial, then adding 1.5 mL of 1:1 acetone: methanol solvent, followed by the addition of 27 mL water with 0.025% Tween® 20 to create a […]. Each test solution was serially diluted to create desired doses of test solutions ranging from 0.000001 to 0.0025% (w/v). The test solutions were tested against CA using the following procedure: cotton seedlings were grown in 3-inch pots with one true leaf (2-5 cm in diameter) were used as test substrate. The seedlings were infested with 20-50 CA (wingless adult and nymph stages) one day prior to chemical application. Four pots with individual seedlings were used for each treatment. A hand-held aspirator-type sprayer was used for spraying a solution to both sides of […] leaves until runoff. Reference plants (solvent check) were sprayed with the diluent only (0.025% Tween® 20 and 10% acetone:methanol (1:1) in water). Treated plants were held in a holding room for three days at approximately 25° C. and ambient relative humidity (RH about 20% to about 45%) prior to grading. Evaluation was conducted by counting the number of live aphids per plant under a microscope three days after treatment. Percent control was measured using Abbott's correction formula (W. S. Abbott, J. Econ. Entomol. 18 (1925), pp. 265-267) as follows:\n(§1) where X=No. of live aphids on solvent check plants and Y=No. of live aphids on treated plants. In Table B1 the “Expected % Control” was calculated using the method described in Colby S. R., Weeds, 1967, 15, 20-22. Bioassay 8: Sweet Potato Whitefly (Bemisia tabaci, BEMITA) (“SPW”)."}, "[2]": {"test_system": "Diamondback Moth (Plutella xylostella, PLUTMA)", "experiment": "Bioassay 9: Diamondback Moth, leaves of track-sprayed cabbage plants, mortality and feeding damage scored", "protocol": "(§2) where X=No. of live nymphs on solvent check plants and Y=No. of live nymphs on treated plants. In Table B2 the “Expected % Control” was calculated using the method described in Colby S. R., Weeds, 1967, 15, 20-22. Bioassay 9: Diamondback Moth (Plutella xylostella, PLUTMA) (DBM).\n(§3) Stock solutions were prepared with Formula One as well as for each of the active ingredients individually. Test solutions were prepared from the stock solutions. Test solutions were prepared containing Formula One, the individual active ingredients, and mixtures of Formula One with each of the active ingredients. The test solution for Formula One was prepared by adding 500 μL of the stock solution to a 25 mL glass vial, then adding 500 μL of a 9:1 mixture of acetone: water. The individual active ingredients were prepared by adding 500 μL of stock solution to a 25 mL glass vial, then adding 500 μL of a 9:1 mixture of acetone: water. The test solutions containing mixtures of Formula One and the individual active ingredients were prepared by adding 500 μL of the active ingredient stock solution to a 25 mL glass vial, followed by 500 μL of the Formula One stock solution, creating a test solution containing 4000 ppm Formula One and 0.4% (w/v) of the active ingredient. Each test solution was serially diluted to create desired doses of test solutions (0.4% (w/v), 0.04% (w/v), 0.004% (w/v), 0.0004% (w/v), 0.00004% (w/v), and 0.000004% (w/v)). In test solutions containing mixtures of Formula One and the active ingredients, the active ingredients were diluted as described above, but the Concentration of Formula One was held constant (0.4% (w/v)). The highest dose test solution (0.4% (w/v)) was discarded, leaving 5 test solution concentrations used in the test.\nCabbage seedlings, grown in 3-inch pots with 2-3 small (3-5 centimeter (cm)) true leaves, were used as test substrate. Cabbage plants were sprayed with desired concentrations of Formula One and active ingredients or their mixtures using a track Sprayer. Reference plants (solvent check) were sprayed with diluent only (0.025% Tween® 20 and 10% acetone:methanol (1:1) in water). The sprayed cabbage plants were allowed to dry for 1 hour, after which leaves from each treatment were placed in a cell of a plastic tray. One leaf per cell and 8 replicates for each cell. The tested doses ranged between 0.000001% (w/v) to 0.0002% (w/v). One 2nd instar DBM larvae were placed in each cell of the tray and allowed to feed on the cabbage foliage for […] after which the mortality and feeding damage were scored. Test trays were held at approximately 26° C. and ambient relative humidity (RH) prior to grading. The number of live larvae were recorded from each cell and percent control was measured using Abbott's correction formula (W. S. Abbott, J. Econ. Entomol. 18 (1925), pp. 265-267) as follows:\nwhere X=No. of live larvae on solvent check and Y=No. of live larvae on treated diet. In Table B6 the “Expected % Control” was calculated using the method described in Colby S. R., Weeds, 1967, 15, 20-22."}, "[3]": {"test_system": "Sweet Potato Whitefly (Bemisia tabaci, BEMITA)", "experiment": "Bioassay 8: Sweet Potato Whitefly, spray on cotton seedlings at crawler emergence, nymphs counted 7-9 days after treatment", "conditions": "AI alone 0.1 (10^-5) Wt %", "protocol": "as §1\n(§4) Stock solutions were prepared with Formula One as well as for each of the active ingredients individually. Test solutions were prepared from the stock solutions. Test solutions were prepared containing Formula One, the individual active ingredients, and mixtures of Formula One with each of the active ingredients. The test solutions for Formula One and the individual active ingredients were prepared by adding 500 μL of stock solution to a 25 mL glass vial, then adding 500 μL of acetone, followed by the addition of 9 mL water with 0.025% Tween®) 20 to create a 0.001% (w/v) solution. The test solutions containing mixtures of Formula One and the individual active ingredients were prepared by adding 500 μL of the active ingredient stock solution to a 25 mL glass vial, followed by 500 μL of the Formula One stock solution, then by the addition of 9 mL water with 0.025% Tween®) 20 to create a test solution containing 0.001% (w/v) Formula One and 0.001% (w/v) of the active ingredient. Each test solution was serially diluted to create desired doses of test solutions (0.001% (w/v), 0.0001% (w/v), 0.00001% (w/v), 0.000001% (w/v), 0.0000001% (w/v), 0.000008% (w/v) and 0.00000001% (w/v)).\n(§5) The test solutions were tested against SPW using the following procedure: Cotton seedlings grown in 3-inch pots, pruned so that only one true leaf remained, were used as test substrate. Adult B. tabaci were allowed to colonize the cotton plants and lay eggs for 24 hours after which all adults were removed from the plants using compressed air. Plants were monitored for egg development and, when crawler emergence was underway (>25% emergence based on visual examination using a microscope), the plants were sprayed using the test solutions and methods described above for green peach aphids (GPA). Treated plants were held in a holding room at approximately 25° C. and ambient relative humidity (RH) prior to grading. Evaluation was conducted by counting the number of developed 2-3 instar nymphs per plant under a microscope 7-9 days after treatment. Percent control was measured using Abbott's correction formula (W. S. Abbott, J. Econ. Entomol. 18 (1925), pp. 265-267) as follows:\nas §2"}, "[4]": {"test_system": "Diamondback Moth (Plutella xylostella, PLUTMA)", "experiment": "Bioassay 6: Diamondback Moth, artificial lepidopteran diet, live larvae after 5 days", "conditions": "DBM; AI alone 0.04 % w/v", "protocol": "where X=No. of live nymphs on solvent check and Y=No. of live nymphs on treated bean segments. In Table B5 the “Expected % Control” was calculated using the method described in Colby S. R., Weeds, 1967, 15, 20-22. Bioassay 6: Beet Armyworm (Spodoptera exigua, LAPHEG) (BAW), and Diamondback Moth (Plutella xylostella, PLUTMA) (DBM).\nas §3\nThe test solutions were tested against BAW and DBM using the following procedure: An artificial lepidopteran diet (Multispecies Lepidopteran Diet, Southland Products) was distributed in 128-cell bioassay trays (Frontier Agricultural Sciences™). 50 μL of test solution was pipetted into a cell in the bioassay tray. (The test solution doses of 0.04% (w/v), 0.004% (w/v), 0.0004% (w/v), 0.00004% (w/v), and 0.000004% (w/v) translated to concentrations of 5, 0.5, 0.05, 0.005, and 0.0005 ug/cm^2 on the diet, respectively.) A reference treatment (solvent check) was treated with the diluent only. […] After 5 days, the number of live larvae were recorded from each cell and percent control was measured using Abbott's correction formula (W. S. Abbott, J. Econ. Entomol. 18 (1925), pp. 265-267) as follows:\nwhere X=No. of live larvae on solvent check and Y=No. of live larvae on treated diet. In Table B6 the “Expected % Control” was calculated using the method described in Colby S. R., Weeds, 1967, 15, 20-22. […]"}, "[5]": {"test_system": "Sweet Potato Whitefly (Bemisia tabaci, BEMITA)", "experiment": "Bioassay 2: Sweet Potato Whitefly, spray on cotton seedlings at crawler emergence, nymphs counted 7-9 days after treatment", "protocol": "as §4, with “(w/v),” for “(w/v), 0.000008% (w/v)”\nas §5\nwhere X=No. of live nymphs on solvent check plants and Y=No. of live nymphs on treated plants. In Table B2 the “Expected % Control” was calculated using the method described in Colby S. R., Weeds, 1967, 15, 20-22. Bioassay 3: Western Flower Thrips (Frankliniella occidentalis, FRANOC) (“WFT”)."}}, "data": [{"compound": "Tetraniliprole", "values": [{"measurement": "Average % Control A1", "setting": "[1]; AI alone 0.1 (10^-5) Wt %", "value": 44.54, "unit": "%"}, {"measurement": "Average % Control A1", "setting": "[1]; AI alone 0.8 (10^-5) Wt %", "value": 7.23, "unit": "%"}, {"measurement": "Average % Control AI", "setting": "[2]; AI alone 0.1 (10^-5) Wt %", "value": 16.67, "unit": "%"}, {"measurement": "Average % Control AI", "setting": "[2]; AI alone 1 (10^-5) Wt %", "value": 50.00, "unit": "%"}, {"measurement": "Average % Control AI", "setting": "[2]; AI alone 5 (10^-5) Wt %", "value": 41.67, "unit": "%"}, {"measurement": "Average % Control A1", "setting": "[3]", "value": 40.00, "unit": "%"}]}, {"compound": "C[C@]1(COC(=O)C2CC2)[C@@H]2C[C@H](O)[C@@]3(C)Oc4cc(-c5cccnc5)oc(=O)c4[C@H](O)[C@@H]3[C@@]2(C)CC[C@@H]1OC(=O)C1CC1", "note": "[Afidopyropen]", "values": [{"measurement": "Average % Control AI", "setting": "[4]", "value": 25, "unit": "%"}, {"measurement": "Average % Control AI", "setting": "[5]; AI alone 0.1 (10-5) % w/v", "value": 0, "unit": "%"}, {"measurement": "Average % Control AI", "setting": "[5]; AI alone 1 (10-5) % w/v", "value": 0, "unit": "%"}]}, {"compound": "Cc1cc(C)c(C2=C(OC(=O)CC(C)(C)C)C3(CCCC3)OC2=O)c(C)c1", "note": "[Spiromesifen]", "values": [{"measurement": "Average % Control AI", "setting": "[4]", "value": 0, "unit": "%"}, {"measurement": "Average % Control AI", "setting": "[5]; AI alone 0.1 (10-5) % w/v", "value": 0, "unit": "%"}]}, {"compound": "CC1(C)[C@H](C(=O)O[C@H](C#N)c2cccc(Oc3ccccc3)c2)[C@@H]1C=C(Br)Br", "note": "[Deltamethrin]", "values": [{"measurement": "Average % Control A1", "setting": "[1]; AI alone 0.78 (10^-5) Wt %", "value": 26.73, "unit": "%"}, {"measurement": "Average % Control A1", "setting": "[1]; AI alone 2.5 (10^-5) Wt %", "value": 34.23, "unit": "%"}, {"measurement": "Average % Control A1", "setting": "[1]; AI alone 10 (10^-5) Wt %", "value": 34.23, "unit": "%"}, {"measurement": "Average % Control AI", "setting": "[2]; AI alone 5 (10^-5) Wt %", "value": 30.43, "unit": "%"}, {"measurement": "Average % Control AI", "setting": "[2]; AI alone 10 (10^-5) Wt %", "value": 15.22, "unit": "%"}, {"measurement": "Average % Control AI", "setting": "[2]; AI alone 20 (10^-5) Wt %", "value": 30.43, "unit": "%"}, {"measurement": "Average % Control A1", "setting": "[3]", "value": 35.94, "unit": "%"}]}]}
